Two substances from patent publication US4600705A, “Gonadoliberin derivatives containing a β-aspartyl group, a process for the preparation thereof and pharmaceutical preparations containing them” (Richter Gedeon Veyteszeti Gyar R.T., priority 1983, dated 1986) can be followed below.

Experiment [1] has as its system sterlet and catfish mother fishes. The experiment in a line: spawning (roe deposition / ovulation) of sterlet and catfish mother fishes. Type of experiment: in vivo. Conditions: control group under the same conditions.
In the next experiment the test system is cattle. Briefly: pregnancy ratio of cattle, dosing simultaneously with insemination. Type of experiment: in vivo. Conditions: same dose (100 μg/dose).
The subject of another experiment is blue and silver foxes. Briefly: extra-seasonal rutting of blue and silver foxes. Type of experiment: in vivo. Particulars: single dose of 10 μg.
The test system of a further experiment is female turkeys. Briefly: brooding time of female turkeys. Type of experiment: in vivo, turkey.

Turning to D-Phe^6, desGly^10 -LH-RH-ethylamide, the “ovulation (in words)” value in experiment [1] is “no ovulation occurred”.
Regarding “native LH-RH: gonadoliberine, gonadotrop releasing hormone; native hormone used as comparator (QHWSYGLRPG; Gonadoliberin-1; UniProt P01148 24-33, looked up)”, the “effect on the pregnancy ratio (in words)” value in the experiment with cattle is “not efficacious”. Also, the extra-seasonal rutting result in the experiment on blue and silver foxes is “inefficacious”. Moreover, the brooding time result with female turkeys is “ineffective”.
